Here are results for six molecules from PMC7931236, “Nonclassical antagonism between human lysozyme and AMPs against Pseudomonas aeruginosa” (FEBS Open Bio, 2021).

In brackets after ≈: the same amount, converted by molar mass. Where two headings read alike, the source gives them in different places. Where a SMILES comes first, the peptide text is derived from it. Bridges are numbered along the chain shown (N, C = ends). Where no end group is shown, it is not given here.

In experiment [1] the test system is P. aeruginosa strain H1001. Format: cell-based, Pseudomonas aeruginosa. The settings on record: for Interaction with hLYS against nonmucoid strain H1001: class by FICI, checkerboard with hLYS. On the procedure: (§1) Checkerboard, or 2‐D MIC, assays were performed analogous to the single agent dose–response studies above, except that 1 : 2 serial dilutions of hLYS were made across the rows of a 96‐well plate, and 1 : 2 serial dilutions of the AMP were made down the columns of the same plate, such that each well contained a unique concentration mixture of the two agents. Controls without treatment (growth control) and without bacteria (sterility control) were included on all plates. Assays were repeated as three independent trials (biological replicates), and results are the average of all measurements.
(§2) To quantify antibacterial interactions, fractional inhibitory concentrations (FIC) and FIC index values (FICI) were calculated as described elsewhere, though in this case using EC50 values in place of conventional growth/no growth visual observations. Briefly, the FIC for one agent is the ratio of its […]. The corresponding FIC values for the two agents in each row and column, respectively, of a checkerboard plate may be summed, and the lowest FIC sum on the plate is designated the FICI.
(§3) Based on the EC50 values of AMP monotherapies, we designed checkerboard assays wherein antibacterial interactions between hLYS and each AMP were quantified. Classical drug interactions such as synergy, additivity, or antagonism manifest characteristic trends across a given checkerboard assay plate, where FICI < 0.5 is defined as synergy, 0.5 ≤ FICI < 4 is defined as additivity, and FICI ≥ 4 is defined as antagonism. Nonclassical interactions, as observed in some of our checkerboard results, might include a concentration‐dependent switch from synergy (or additivity) to antagonism. In extreme cases, we observed inversion of the dose–response curves for specific combinations and concentration ranges of our antibacterial agents, as discussed below.

Experiment [2] concerns P. aeruginosa strain Xen05. The experiment is classed as cell-based, Pseudomonas aeruginosa. Particulars: for Interaction with hLYS against mucoid strain Xen05: class by FICI, checkerboard with hLYS. The procedure: as §1, §2, §3
Experiment [3] deals with P. aeruginosa strain H1001. On the procedure: (§4) The mucoid bioluminescent P. aeruginosa strain Xen05 was purchased from Caliper life Sciences, Inc. The nonmucoid bioluminescent strain H1001 was the kind gift of Robert Hancock (University of British Columbia, Vancouver, BC, Canada). Both strains were stored as glycerol stocks at −80 °C. Recombinant hLYS and freeze‐dried Micrococcus luteus were purchased from Sigma Millipore (Burlington, MA, USA). Protegrin 1 AMP (PTG1) and HB71 peptides (> 95% purity) were obtained from Peptide 2.0. LL‐37, Melittin, and Tet009 peptides (> 95% purity) were purchased from GenScript (Piscataway, NJ, USA). Human beta defensin 3 AMP (hBD3) peptide was purchased from AnaSpec. Peptide stock solutions were stored at −20 °C. All other reagents and materials were purchased from Fisher Scientific (Waltham, MA, USA).
(§5) We analyzed the dose–response potency of each AMP against both strains via a well‐validated luminescence assay. Hundred microlitre of exponential phase cells (5 × 10^6 cells/mL) in dextrose/tris (DT) buffer (20 mM dextrose, 100 mM Tris, pH 7.4) were incubated with a 1 : 2 dilution series of each AMP in white, flat‐bottomed, 96‐well plates at 37 °C for 4 h. Culture luminescence was then quantified by imaging with a CCD camera (Bio‐Rad ChemiDoc XRS System, Hercules, CA, USA). Measurements were normalized to the no‐treatment controls on the same plate, and potency was quantified by a 3‐parameter logistic regression of luminescence versus AMP concentration, yielding EC50 values (Fig. S1). Importantly, the luminescence of these P. aeruginosa strains is known to correlate with bacterial viability. Assays were done in technical triplicate or quadruplicate and repeated at least twice.

Experiment [4] relates to P. aeruginosa strain Xen05. The procedure:
as §4, §5

[5] abbreviates: Fig. S1 panels G-L, N, single agent dose response, technical triplicate or quadruplicate, repeated at least twice.
[6] abbreviates: single agent, luminescence, DT buffer (20 mM dextrose, 100 mM Tris, pH 7.4), 5 × 10^6 cells/mL, 37 °C, 4 h, 3-parameter logistic regression, technical triplicate or quadruplicate, repeated at least twice.
Where [7] appears, read: Fig. S1 panels A-F, M, single agent dose response, technical triplicate or quadruplicate, repeated at least twice.
Setting [8] is: AMP combined with hLYS, FIC from EC50 values (50% luminescence reduction), lowest FIC sum on plate, three independent trials.

In the case of `CC(C)C[C@H](NC(=O)[C@H](CCCNC(=N)N)NC(=O)CNC(=O)CNC(=O)[C@@H](N)CCCNC(=N)N)C(=O)N[C@H]1CSSC[C@@H](C(=O)N[C@H](C(=O)NCC(=O)N[C@@H](CCCNC(=N)N)C(=O)O)C(C)C)NC(=O)[C@H](C(C)C)NC(=O)[C@@H]2CSSC[C@H](NC(=O)[C@H](Cc3ccc(O)cc3)NC1=O)C(=O)N[C@@H](CCCNC(=N)N)C(=O)N[C@@H](CCCNC(=N)N)C(=O)N[C@@H](CCCNC(=N)N)C(=O)N[C@@H](Cc1ccccc1)C(=O)N2` [PTG‐1] (H-RGGRLCYCRRRFCVCVGR-OH; disulfide 6-15, 8-13 (inferred); N-terminus and C-terminus assumed), in experiment [1], the “Interaction with hLYS against nonmucoid strain H1001” value is listed as “synergy (FICI < 0.5 is defined as synergy)”. The “Interaction with hLYS against mucoid strain Xen05” value in experiment [2] is listed as “synergy (FICI < 0.5 is defined as synergy)”. For the same molecule, in experiment [3] (strain H1001, 4 h), the “95% confidence intervals for EC50 values, H1001” value (from here on “95% confidence intervals … H1001”) was 1.6 to 1.8 µg/mL. Further, the “EC50 H1001” value in experiment [3] (strain H1001, 4 h, pH 7.4) worked out at 1.7 µg/mL (≈ 0.788 µM). Moreover, the “95% confidence intervals for EC50 values, Xen05” value (shortened to “95% confidence intervals … Xen05”) in experiment [4] (strain Xen05, 4 h) is 1.1 to 1.2 µg/mL. Moreover, the “EC50 Xen05” value in experiment [4] (strain Xen05, 4 h, pH 7.4) is 1.1 µg/mL (≈ 0.51 µM).

As to “GIINTLQKYYCRVRGGRCAVLSCLPKEEQIGKCSTRGRKCCRRKK (disulfide 11-40, 18-33, 23-41 (inferred)) [hBD3]”, the “Interaction with hLYS against nonmucoid strain H1001” value in experiment [1] is given as “synergy (FICI < 0.5 is defined as synergy)”. For the same molecule, the “Interaction with hLYS against mucoid strain Xen05” value in experiment [2] is “additivity (0.5 ≤ FICI < 4 is defined as additivity)”. Further, the “95% confidence intervals … H1001” value in experiment [3] (strain H1001, 4 h) lay within 6.9 to 7.1 µg/mL. Moreover, the “EC50 H1001” value in experiment [3] (strain H1001, 4 h, pH 7.4) was found to be 7.0 µg/mL. The “95% confidence intervals … Xen05” value in experiment [4] (strain Xen05, 4 h) lay in the range of 5.5 to 6.5 µg/mL. In addition, the “EC50 Xen05” value in experiment [4] (strain Xen05, 4 h, pH 7.4) came out at 6.0 µg/mL.

For human lysozyme [hLYS], the “95% confidence intervals … H1001” value in experiment [3] (setting [5]) is 700 to 1100 µg/mL. For the same molecule, in experiment [3] (setting [6]), the “EC50 H1001” value stood at 890 µg/mL. For the same molecule, the “95% confidence intervals … Xen05” value in experiment [4] (setting [7]) was in the range of 800 to 1200 µg/mL. For the same molecule, the “EC50 Xen05” value in experiment [4] (setting [6]) turned out to be 990 µg/mL.

For RRWKIVVIRWRR [Tet009], the “95% confidence intervals … H1001” value in experiment [3] (setting [5]) was 2.5 to 2.9 µg/mL. Besides, in experiment [3] (setting [6]), the “EC50 H1001” value is 2.7 µg/mL. For the same molecule, the “95% confidence intervals … Xen05” value in experiment [4] (setting [7]) lay in the range of 1.4 to 1.5 µg/mL. The “EC50 Xen05” value in experiment [4] (setting [6]) was 1.5 µg/mL.

For the molecule `CC[C@H](C)[C@H](NC(=O)[C@H](CCCCN)NC(=O)[C@H](CCC(=O)O)NC(=O)[C@H](CCCCN)NC(=O)[C@H](CO)NC(=O)[C@H](CCCCN)NC(=O)[C@H](CCCNC(=N)N)NC(=O)[C@H](Cc1ccccc1)NC(=O)[C@H](Cc1ccccc1)NC(=O)[C@H](CC(=O)O)NC(=O)CNC(=O)[C@H](CC(C)C)NC(=O)[C@@H](N)CC(C)C)C(=O)NCC(=O)N[C@@H](CCCCN)C(=O)N[C@@H](CCC(=O)O)C(=O)N[C@@H](Cc1ccccc1)C(=O)N[C@@H](CCCCN)C(=O)N[C@@H](CCCNC(=N)N)C(=O)N[C@H](C(=O)N[C@H](C(=O)N[C@@H](CCC(N)=O)C(=O)N[C@@H](CCCNC(=N)N)C(=O)N[C@H](C(=O)N[C@@H](CCCCN)C(=O)N[C@@H](CC(=O)O)C(=O)N[C@@H](Cc1ccccc1)C(=O)N[C@@H](CC(C)C)C(=O)N[C@@H](CCCNC(=N)N)C(=O)N[C@@H](CC(N)=O)C(=O)N[C@@H](CC(C)C)C(=O)N[C@H](C(=O)N1CCC[C@H]1C(=O)N[C@@H](CCCNC(=N)N)C(=O)N[C@H](C(=O)N[C@@H](CCC(=O)O)C(=O)N[C@@H](CO)C(=O)O)[C@@H](C)O)C(C)C)[C@@H](C)CC)C(C)C)[C@@H](C)CC` [LL37], in experiment [1] (setting [8]), the “FICI H1001” value stood at 0.5 ± 0.2. Moreover, the “FICI Xen05” value in experiment [2] (setting [8]) came to 0.5 ± 0.2. Further, the “95% confidence intervals … H1001” value in experiment [3] (setting [5]) fell in the range of 5.7 to 6.6 µg/mL. Further, the “EC50 H1001” value in experiment [3] (setting [6]) was found to be 6.1 µg/mL (≈ 1.36 µM). In experiment [4] (setting [7]), the “95% confidence intervals … Xen05” value is 4.8 to 5.1 µg/mL. Besides, in experiment [4] (setting [6]), the “EC50 Xen05” value stood at 5.0 µg/mL (≈ 1.11 µM).

With FAKKLAKKLKKLAKKLAK [HB71], the “EC50 H1001” value in experiment [3] (setting [6]) came to 2.6 µg/mL. Moreover, the “95% confidence intervals … Xen05” value in experiment [4] (setting [7]) fell in the range of 1.4 to 1.8 µg/mL. Moreover, the “EC50 Xen05” value in experiment [4] (setting [6]) was 1.6 µg/mL.
